# Legend:
# [1] = tested on: Mycolicibacterium aurum; assay: Antimycobacterial activity against Mycobacterium aurum; assay type: functional
# [2] = tested on: Mycolicibacterium fortuitum; assay: Antimycobacterial activity against Mycobacterium fortuitum; assay type: functional
# [3] = tested on: Mycobacterium tuberculosis; assay: Antimycobacterial activity against Mycobacterium tuberculosis H37Ra; assay type: functional, organism-based
# [4] = tested on: Mycobacterium tuberculosis; assay: Antitubercular activity against Mycobacterium tuberculosis H37Ra assessed as inhibition of bacterial growth; assay type: functional
# [5] = tested on: Mycobacterium tuberculosis; assay: Antibacterial activity against Mycobacterium tuberculosis H37Ra assessed as reduction in bacterial growth incubated for 14 days by CLSI protocol based method; assay type: functional; details: 336 h, time 14 day
# [6] = tested on: Mycolicibacterium smegmatis; assay: Antimycobacterial activity against Mycobacterium smegmatis mc2 155 assessed as reduction in bacterial growth; assay type: functional
# [7] = tested on: Pseudomonas aeruginosa; assay: Antibacterial activity against Pseudomonas aeruginosa assessed as reduction in bacterial growth incubated for 24 hrs by broth microdilution method; assay type: functional, organism-based
# [8] = tested on: Mycobacterium intracellulare; assay: Antibacterial activity against Mycobacterium intracellulare; assay type: functional, organism-based
# [9] = tested on: Bipolaris sorokiniana; assay: Antifungal activity against Cochliobolus sativus; assay type: functional, organism-based
# [10] = tested on: Leishmania donovani; assay: Antileishmanial activity against Leishmania donovani amastigotes infected in J774 macrophage assessed as inhibition of parasite growth incubated for 48 hrs by luciferase assay; assay type: functional, organism-based; details: J774, 48 h
# [11] = tested on: Bacillus subtilis; assay: Antibacterial activity against Bacillus subtilis PY79 assessed as reduction in bacterial growth; assay type: functional, organism-based
# [12] = tested on: Phytophthora capsici; assay: Antifungal activity against Phytophthora capsici; assay type: functional, organism-based
# [13] = tested on: Mycobacterium tuberculosis; assay: Antimycobacterial activity against Mycobacterium tuberculosis H37Rv assessed as inhibition of bacterial growth incubated for 7 to 14 days by MABA assay; assay type: functional; details: time 7-14 day
# [14] = tested on: Leishmania donovani; assay: Antileishmanial activity against amastigote form of Leishmania donovani infected in BALB/c mouse assessed as inhibition of parasite growth in liver at 10 mg/kg, po measured for 7 days by geimsa staining based analysis relative to control; assay type: functional; design: scale not given: the % may be the effect or the level left; details: time 7 day
# [15] = tested on: Plasmodium falciparum; assay: Antiplasmodial activity against Plasmodium falciparum assessed as parasite growth inhibition; assay type: functional, organism-based
# [16] = tested on: Enterococcus faecalis; assay: Antibacterial activity against Enterococcus faecalis; assay type: functional
# [17] = tested on: Streptococcus pyogenes; assay: Antibacterial activity against Streptococcus pyogenes assessed as bacterial growth inhibition; assay type: functional
# [18] = tested on: Bacillus subtilis; assay: Antibacterial activity against Bacillus subtilis; assay type: functional
# [19] = tested on: Leishmania mexicana; assay: Antileishmanial activity against Leishmania mexicana promastigotes; assay type: functional, organism-based
# [20] = tested on: Leishmania mexicana; assay: Antileishmanial activity against Leishmania mexicana amastigotes; assay type: functional, organism-based
# [21] = tested on: Leishmania amazonensis; assay: Antileishmanial activity against leishmania amazonensis promastigotes MHOM/BR/77/LTB0016 assessed as assessed as parasite growth inhibition incubated for 72 hrs by Alamar Blue assay; assay type: functional, organism-based; details: MHOM/BR/77/LTB0016, 72 h
# [22] = tested on: Escherichia coli; assay: Antibacterial activity against Escherichia coli DC2 assessed as reduction in bacterial growth; assay type: functional
# [23] = tested on: Staphylococcus aureus; assay: Antimicrobial activity against methicillin-sensitive Staphylococcus aureus K147 assessed as reduction in microbial growth; assay type: functional
# [24] = tested on: Staphylococcus aureus; assay: Antibacterial activity against Staphylococcus aureus SAP0017 assessed as reduction in bacterial growth; assay type: functional
# [25] = tested on: Bacillus subtilis; assay: Antibacterial activity against Bacillus subtilis assessed as reduction in microbial growth; assay type: functional
# [26] = tested on: Mycobacterium tuberculosis; assay: Antimycobacterial activity against Mycobacterium tuberculosis H37Rv; assay type: functional
# [27] = tested on: Mycobacterium tuberculosis; assay: Antimycobacterial activity against Mycobacterium tuberculosis Erdman; assay type: functional
# [28] = tested on: Mycobacterium tuberculosis; assay: Antimycobacterial activity against Mycobacterium tuberculosis Erdman ATCC 35801; assay type: functional
# [29] = tested on: Mycobacterium tuberculosis; assay: Antimycobacterial activity against Mycobacterium tuberculosis H37Rv assessed as inhibition of bacterial growth by MABA assay; assay type: functional
# [30] = tested on: Mycobacterium tuberculosis; assay: Antimycobacterial activity against Mycobacterium tuberculosis Erdman assessed as inhibition of bacterial growth by MABA assay; assay type: functional
smiles,measurement,setting,value
C=C[C@@H](O)C#CC#CC/C=C\CCCCCCC,MIC,[1],16 µM
same,MIC,[2],16 µM
same,IC50,[3],15000 nM
same,MIC,[4],3.73 µg/mL
same,MIC,[5],6.25 µg/mL
same,MIC,[6],12 µg/mL
CCCCCCCCCCCCCCCC[C@@H](O)C#CC#CCO,IC50,[7],1900 nM
same,IC50,[8],7700 nM
C=C[C@@H](O)C#CC#C/C=C/[C@H](O)CCCCCCCC,EC50,[9],37 µg/mL
C=C[C@H](O)C#CC#C[C@@H](CCCCCCCCC)NC(=O)c1ccccc1,IC50,[10],5 nM
C#CC(O)/C=C/C(O)CCCC(O)CC#CC(O)C#CCCCCC(=O)CCCCC/C=C/C(O)CCCCCCCCCCCCCC(O)C(O)C#CC(=O)O (stereo not given),IC50,[11],12 µg/mL
C=C[C@H](O)C#CC#C[C@@H](O)c1cccs1,EC50,[12],3.6 µg/mL
CC(C)CCCC/C=C\CCCCCCCCC[C@@H](O)C#CC#CCO,IC50,[7],1700 nM
same,IC50,[8],9900 nM
C#CC(O)/C=C/CCCCCCCCC/C=C/CCCCCCCCC/C=C/C(O)C#C (stereo not given),MIC,[13],1.4 µM
C=C[C@@H](C#CC#C[C@@H](CCCCCCCCC)NC(=O)c1ccccc1)OC(C)=O,IC50,[10],30 nM
same,Activity,[14],26%
C=C[C@H](O)C#CC#C[C@@H](CCCCCCCCC)NCCCC,IC50,[10],3 nM
C=C[C@H](O)C#CC#CC/C=C\CCCCCCCC,EC50,[9],26 µg/mL
C=C[C@H](O)C#CC#C[C@H](O)c1cccs1,EC50,[12],2.7 µg/mL
C=C[C@H](O)C#CC#C[C@H](O)CCCCCCCCC,IC50,[10],13 nM
same,Activity,[14],41%
same,IC50,[15],0.271 µg/mL
same,MIC,[16],16 µM
same,MIC,[17],8 µM
same,MIC,[18],2 µM
C=C[C@@H](O)C#CC#C[C@H](O)c1cccs1,EC50,[12],31 µg/mL
C=CCCCCC/C=C\CC#CC#C[C@@H](O)C=C,IC50,[19],0.28 µg/mL
same,IC50,[20],0.18 µg/mL
C#CC(O)/C=C/C(O)CCCC(O)C(O)C#CC(O)C#CCCCCC(=O)CCCCC/C=C/C(O)CCCCCCCCCCCCCC(O)C(O)C#CC(=O)O (stereo not given),IC50,[11],25 µg/mL
C#CC(O)/C=C/C(O)CCCC(O)CC#CC(O)C#CC(O)CCCC(=O)CCCCC/C=C/C(O)CCCCCCCCCCCCC(O)C(O)C(O)C#CC(=O)O (stereo not given),IC50,[11],12 µg/mL
C=CC(O)C#CC#C/C=C/C(O)CCCCCCC (stereo not given),IC50,[21],5800 nM
C=C[C@H](O)C#CC#C[C@@H](O)/C=C\CCCCCCC,MIC,[22],2.5 µg/mL
same,MIC,[23],12 µg/mL
same,MIC,[24],25 µg/mL
same,MIC,[25],12 µg/mL
same,MIC,[26],27 µg/mL
same,MIC,[27],6 µg/mL
same,MIC,[28],6.2 µg/mL
C#CC(O)/C=C/C(O)CCCC(O)CC#CC(O)C#CCCCC(O)/C=C/CCCCCC(=O)CCCCCCCCCCCCCC(O)C(O)C(O)C#CC(=O)O (stereo not given),IC50,[11],12 µg/mL
C#CC(O)/C=C/C(O)CCCC(O)CC#CC(O)C#CCCCCC(=O)CCCCC/C=C/C(O)CCCCCCCCCCCCC(O)C(O)C(O)C#CC(=O)O (stereo not given),IC50,[11],12 µg/mL
CCCC/C=C/C#CC#CC(O)CCCCCCC(=O)O (stereo not given),IC50,[3],25 µg/mL
C=CC(O)C#CC#CC(O)C1OC1CCCCCCC (stereo not given),MIC,[29],> 60 µg/mL
same,MIC,[30],> 60 µg/mL
C=C[C@@H](C#CC#C[C@H](O)CCCCCCCCC)OC(C)=O,IC50,[10],630 nM
same,IC50,[15],0.341 µg/mL
same,MIC,[16],32 µM
same,MIC,[17],8 µM
same,MIC,[18],8 µM
C=C[C@@H](O)C#CC#C[C@@H](O)c1cccs1,EC50,[12],3.3 µg/mL

# Reference: ChEMBL document CHEMBL6074642, “Natural and Bioinspired Lipidic Alkynylcarbinols as Leishmanicidal, Antiplasmodial, Trypanocidal, Fungicidal, Antibacterial, and Antimycobacterial Agents” (J Nat Prod, 2024)
